In general, pKd refers to the negative decadic logarithm of the Kd, by convention in mol/L.

pKd: −log10 of the molar value.

Assay type in all cases: binding
For assay [1], the target named is T1, lumazine synthase (RibH) (Mycobacterium tuberculosis, UniProt P9WHE9). The experiment in a line: […]; also riboflavin displacement ([…] at […]).
Assay [2] addresses T1, lumazine synthase (RibH). The assay is described as follows: biochemical.
For assay [3], the target named is T1, lumazine synthase (RibH). The assay is described as follows: […]; also riboflavin displacement ([…] at […]). The source holds these as a separate data set.
Assay [4] concerns the target T1, lumazine synthase (RibH). The experiment in a line: […]; also riboflavin displacement ([…] at […]). The source holds these as a separate data set.

T1 sequence (P9WHE9 whole entry): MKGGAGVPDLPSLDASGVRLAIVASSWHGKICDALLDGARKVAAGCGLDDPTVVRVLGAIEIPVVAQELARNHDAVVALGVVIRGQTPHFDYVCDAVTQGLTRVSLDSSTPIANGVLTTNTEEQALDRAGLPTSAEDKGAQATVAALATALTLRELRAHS

`Cc1ccc(N=C2NC(=O)C(=Cc3ccc([N+](=O)[O-])o3)S2)cc1` [A52, 5-((5-nitrofuran-2-yl)methylene)-2-(p-tolylimino)thiazolidin-4-one]: the pKd on lumazine synthase (RibH) [1] was 7.32.
On to `Cc1cc2nc3c(=O)[nH]c(=O)nc-3n(C[C@H](O)[C@H](O)[C@H](O)CO)c2cc1C` [riboflavin], for which the pKd at lumazine synthase (RibH) [2] is 7.07.
With `O=C1NC(=Nc2ccccc2)SC1=Cc1ccc([N+](=O)[O-])o1` [A10, 5-((5-nitrofuran-2-yl)methylene)-2-(phenylimino)thiazolidin-4-one], the pKd on lumazine synthase (RibH) [3] was 7.16.
In the case of `O=C1NC(=Nc2ccc(Cl)cc2)SC1=Cc1ccc([N+](=O)[O-])o1` [A39, 2-((4-chlorophenyl)imino)-5-((5-nitrofuran-2-yl)methylene)thiazolidin-4-one], at lumazine synthase (RibH) [4], the pKd was 8.64.

The record behind these values is publication PMC11133327, “Discovery of potent antimycobacterial agents targeting lumazine synthase (RibH) of Mycobacterium tuberculosis” (Scientific Reports, 2024).
